Measured values published in the supplement of paper PMC10307832.

How the values were obtained:
Test in all cases: relative viability (nuclei count vs DMSO), 5 days (fraction); higher = more cells survive
[1] = compound: CC[C@@H](C)CNCC(=O)N1CCC2=C([C@@H]1COC3=CC=CC(=C3)C)C=CS2 [RU-SKI 43] + Nc1ncn([C@H]2C[C@H](O)[C@@H](CO)O2)c(=O)n1 [Decitabine] (partner 2 µM)
Outline: (§1)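 Values are medians from duplicate plates. Each reflects relative viability, defined as the nuclei count of treated wells over that of vehicle wells. Lung cancer cell lines in 1536-well plates were pin-tool dosed one day after seeding with one drug alone or with a fixed anchor-drug dose plus five library-drug doses (not always all listed) in √10 steps, then fixed, stained and imaged at 4× after 5 days.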

[2] = compound: CCc1c2c(nc3ccc(OC(=O)N4CCC(N5CCCCC5)CC4)cc13)-c1cc3c(c(=O)n1C2)COC(=O)[C@]3(O)CC [Irinotecan] + Cc1nc(NC(=O)N2CCC[C@H]2C(N)=O)sc1-c1ccnc(C(C)(C)C(F)(F)F)c1 [Alpelisib] (partner 2 µM)
Outline: as §1

[3] = compound: CC[C@@H](C)CNCC(=O)N1CCC2=C([C@@H]1COC3=CC=CC(=C3)C)C=CS2 [RU-SKI 43] + N=C(N)NC(=N)NCCc1ccccc1 [Phenformin] (partner 250 µM)
Outline: as §1

[4] = compound: Cn1cc(-c2cnc3ccc4ccc(CS(=O)(=O)NCc5ccccn5)cc4c(=O)c3c2)cn1 [MK-8033] + CS(=O)(=O)CCNCc1ccc(-c2ccc3ncnc(Nc4ccc(OCc5cccc(F)c5)c(Cl)c4)c3c2)o1 [Lapatinib] (partner 2 µM)
Outline: as §1

NCI-H3122
relative viability ([1]; first compound 0.1 µM): 0.365
relative viability ([1]; first compound 0.3162 µM): 0.478
relative viability ([1]; first compound 1 µM): 0.469
relative viability ([1]; first compound 3.162 µM): 0.413
relative viability ([1]; first compound 10 µM): 0.391
relative viability ([2]; first compound 0.6325 µM): 0.824
relative viability ([2]; first compound 2 µM): 0.301
relative viability ([2]; first compound 6.325 µM): 0.244
relative viability ([2]; first compound 20 µM): 0.255
relative viability ([3]; first compound 0.1 µM): 0.394
relative viability ([3]; first compound 0.3162 µM): 0.376
relative viability ([3]; first compound 1 µM): 0.411
relative viability ([3]; first compound 3.162 µM): 0.379
relative viability ([3]; first compound 10 µM): 0.37
relative viability ([4]; first compound 0.02 µM): 1.03
relative viability ([4]; first compound 0.06325 µM): 0.98
relative viability ([4]; first compound 0.2 µM): 1.01
relative viability ([4]; first compound 0.6325 µM): 1.01
relative viability ([4]; first compound 2 µM): 0.993

NCI-H727
relative viability ([1]; first compound 0.3162 µM): 0.805
relative viability ([1]; first compound 1 µM): 0.882
relative viability ([1]; first compound 3.162 µM): 0.834
relative viability ([1]; first compound 10 µM): 0.972
relative viability ([2]; first compound 0.6325 µM): 0.324
relative viability ([2]; first compound 2 µM): 0.433
relative viability ([2]; first compound 6.325 µM): 0.354
relative viability ([2]; first compound 20 µM): 0.422
relative viability ([3]; first compound 0.1 µM): 0.524
relative viability ([3]; first compound 0.3162 µM): 0.59
relative viability ([3]; first compound 1 µM): 0.676
relative viability ([3]; first compound 3.162 µM): 0.662
relative viability ([3]; first compound 10 µM): 0.445
relative viability ([4]; first compound 0.02 µM): 0.759
relative viability ([4]; first compound 0.06325 µM): 0.72
relative viability ([4]; first compound 0.2 µM): 0.665
relative viability ([4]; first compound 0.6325 µM): 0.748
relative viability ([4]; first compound 2 µM): 0.858

NCI-H1355
relative viability ([1]; first compound 0.1 µM): 0.351
relative viability ([1]; first compound 0.3162 µM): 0.378
relative viability ([1]; first compound 1 µM): 0.348
relative viability ([1]; first compound 3.162 µM): 0.348
relative viability ([1]; first compound 10 µM): 0.354
relative viability ([2]; first compound 0.6325 µM): 0.711
relative viability ([2]; first compound 2 µM): 0.4
relative viability ([2]; first compound 6.325 µM): 0.222
relative viability ([2]; first compound 20 µM): 0.237
relative viability ([3]; first compound 0.1 µM): 0.49
relative viability ([3]; first compound 0.3162 µM): 0.446
relative viability ([3]; first compound 1 µM): 0.475
relative viability ([3]; first compound 3.162 µM): 0.472
relative viability ([3]; first compound 10 µM): 0.438
relative viability ([4]; first compound 0.02 µM): 0.979
relative viability ([4]; first compound 0.06325 µM): 0.865
relative viability ([4]; first compound 0.2 µM): 0.865
relative viability ([4]; first compound 0.6325 µM): 0.988
relative viability ([4]; first compound 2 µM): 0.909

NCI-H1792
relative viability ([1]; first compound 0.1 µM): 0.392
relative viability ([1]; first compound 0.3162 µM): 0.667
relative viability ([1]; first compound 1 µM): 0.682
relative viability ([1]; first compound 3.162 µM): 0.728
relative viability ([1]; first compound 10 µM): 0.561
relative viability ([2]; first compound 0.6325 µM): 0.711
relative viability ([2]; first compound 2 µM): 0.673
relative viability ([2]; first compound 6.325 µM): 0.329
relative viability ([2]; first compound 20 µM): 0.11
relative viability ([3]; first compound 0.1 µM): 0.267
relative viability ([3]; first compound 1 µM): 0.4
relative viability ([3]; first compound 10 µM): 0.227
relative viability ([4]; first compound 0.02 µM): 1.06
relative viability ([4]; first compound 0.06325 µM): 0.87
relative viability ([4]; first compound 0.2 µM): 0.863
relative viability ([4]; first compound 0.6325 µM): 0.917
relative viability ([4]; first compound 2 µM): 0.976

NCI-H661
relative viability ([1]; first compound 0.1 µM): 0.483
relative viability ([1]; first compound 0.3162 µM): 0.603
relative viability ([1]; first compound 1 µM): 0.588
relative viability ([1]; first compound 3.162 µM): 0.557
relative viability ([1]; first compound 10 µM): 0.465
relative viability ([2]; first compound 0.6325 µM): 0.798
relative viability ([2]; first compound 2 µM): 0.538
relative viability ([2]; first compound 6.325 µM): 0.277
relative viability ([2]; first compound 20 µM): 0.269
relative viability ([3]; first compound 0.1 µM): 0.288
relative viability ([3]; first compound 0.3162 µM): 0.281
relative viability ([3]; first compound 1 µM): 0.324
relative viability ([3]; first compound 3.162 µM): 0.281
relative viability ([3]; first compound 10 µM): 0.267
relative viability ([4]; first compound 0.02 µM): 0.384
relative viability ([4]; first compound 0.06325 µM): 0.417
relative viability ([4]; first compound 0.2 µM): 0.482
relative viability ([4]; first compound 0.6325 µM): 0.453
relative viability ([4]; first compound 2 µM): 0.438
